Assay results: ChEMBL document CHEMBL1134447 (J Med Chem, 2001)

Legend:
[1] = physchem; details: octanol/water, pH 7.4
[2] = physchem; details: buffer

SMILES | logD [1] | solubility [2] [µM]
O=C(OCc1cc2c(cc1Cl)OCO2)N1CCC(n2c(O)nc3ccccc32)CC1 | 4.2 | < 10
O=C(OC1CCc2ccccc21)N1CCC2(CC1)C(=O)NCN2c1ccccc1 (stereo not drawn) | > 4 | < 10
O=C(NCCCn1c(=O)[nH]c2ccccc21)OCc1cc2c(cc1Cl)OCO2 | > 4 | < 10
O=C(OCc1cccc(Oc2ccccc2)c1)N1CCC2(CC1)C(=O)NCN2c1ccccc1 | > 4 | < 10
